Experiment: Permeability study, Caco-2 cell in vitro drug absorption model
Type: in vitro ADME
Conditions: human
Protocol: The permeability of Compound P9 of the invention and Compound A107 of WO2017/114510A1 was determined using Caco-2 cell in vitro drug absorption model in this Example
• Cell: human intestinal cancer Caco2 (HTB-37, ATCC) • Petri dish: 10 cm petri dish (430167, Corning) • Millicell-24 microplage (PSHT010R5, Millipore) • Buffer: PBS (14190, Invitrogen) • HEPES (H0887, Sigma) • HBSS (H8264, Sigma) • Substances related to cell culture: • high glucose DMEM medium (L0103-500, Biowest) • fetal bovine serum (S1810-500, Biowest) • trypsin (255200-056, Invitrogen) • nonessential amino acid (M7145, Sigma) • penicillin and streptomycin (B-13234, GIBCO) • sodium pyruvate (11360-070, Invitrogen) • L-glutamine (25030-081, Invitrogen) • Relevant reagents: fluorescein (L0144, Sigma) • propranolol (P831800, Sigma) • colchicine (C9754, Sigma) • atenolol (A7655, Sigma) • Instruments: liquid chromatography (Waters Acquity UPLC I-class, Waters) • mass spectrometry (Waters xevo TQ-S MS/MS, Waters) • ohmmeter (Millicell-ERS, Thermo) • microplate reader (Infinite Pro, Tecan) (2). Assay Protocol:
• 1) The Caco-2 cells were revived, and incubated in a 10 cm petri dish in a 5-6% CO2 and 95% RH incubator at 37° C. […] The cells were re-suspended in 6 ml complete medium, and counted three times. • 3) The cells were harvested by centrifugation at 1000 rpm for 5 min, and diluted in suspension. […]

## Cn1nccc1Nc1cc(-c2cc(F)c3c(c2)CCN3C(=O)Cc2cccnc2Cl)ccn1 [Example P9, 2-(2-chloropyridin-3-yl)-1-(7-fluoro-5-(2-((1-methyl-1H-pyrazol-5-yl)amino)pyridin-4-yl)indolin-1-yl)ethan-1-one]
  efflux ratio at 1.5 h, 20 μm: 1.3
Papp, Apical to Basal, 20 μm, 1.5 h, read-out: apparent permeability coefficient (Caco-2) From A to B
  Papp A→B at 1.5 h, 20 μm: 23.7 ×10⁻⁶ cm/s

— patent US11465984B2, “Compound having ERK kinase inhibitory activity and use thereof” (SHANGHAI HAIHE PHARMACEUTICAL CO., LTD., priority 2017, dated 2022)
